According to patent US20240197702A1, “ANTISEPTIC-ANTIBIOTIC GUMBOS EFFECTIVE AGAINST GRAM-NEGATIVE PATHOGENS” (priority 2020, published 2024):
Counter-ions that a name gives are not always drawn.

Experiments:
[1] = according to Hansch et al (1995); cited from earlier work
[2] = tested on: N. gonorrhoeae ATCC 49226; assay: Kirby-Bauer disc diffusion against N. gonorrhoeae ATCC 49226; assay type: cell-based, Neisseria gonorrhoeae; conditions: for Zone size, mm (±SD): ATCC 49226, disc diffusion, 20-24 h
Description: (§1) Antimicrobial susceptibility testing: Kirby-Bauer disc diffusion susceptibility tests were used to determine zones of inhibition (ZOIs) for N. gonorrhoeae (ATCC 49226) and three clinical isolates obtained from Louisiana State University Health Sciences Center New Orleans HIV Outpatient Clinic. Kirby-Bauer disc diffusion is one of the CDC's preferred methods of testing the susceptibility of N. gonorrhoeae. Testing was performed according to CLSI recommended procedures. In this susceptibility test, 6 mm diameter blank paper discs were impregnated with known quantities of antimicrobial drug followed by evaporation of solvent; however, ceftriaxone, azithromycin and doxycycline antimicrobial susceptibility discs were purchased from Thermo Fisher Scientific. Impregnated discs were placed onto prepared nutrient agar plates that were inoculated with N. gonorrhoeae to give a confluent lawn of growth. Suspensions of these various strains were prepared in accordance with a 1.0 McFarland standard. Inoculated agar plates were incubated for 20-24 h at 37° C. in a 5% CO2 atmosphere.
(§2) Blank discs were loaded with 50 nmol of GUMBOS, respective constituent compounds and equivalent stoichiometric unreacted mixtures of octenidine and carbenicillin that are equimolar to the purchased ceftriaxone discs (Oxoid™, Thermo Fisher). After 20-24 h incubation, diameters of ZOIs were measured using a ruler. […] Antibacterial activity was improved for octenidine when chloride ions were exchanged for the antibiotic. […] This effect was not seen, however, for an unreacted mixture of the two drugs for either N. gonorrhoeae (ATCC 49226) or clinical isolates. The ZOIs of octenidine/carbenicillin were also larger than or equal to azithromycin and doxycycline ZOIs for N. gonorrhoeae (ATCC 49226). […] This is significant as resistance rates for azithromycin have increased worldwide. Among 57 countries reporting on azithromycin susceptibility, 28 (49%) reported>5% resistance. […] Ceftriaxone produced large ZOIs as the clinical population still remains susceptible to it in the USA (only 0.2% of isolates had elevated resistance to ceftriaxone in 2017).

[3] = tested on: N. gonorrhoeae ATCC 49226; assay: MIC by micro-broth dilution against N. gonorrhoeae ATCC 49226; assay type: cell-based, Neisseria gonorrhoeae; conditions: Neisseria gonorrhoeae, ATCC49226; ATCC 49226, micro-broth dilution, 20-24 hours
Description: (§3) Minimum Inhibitory Concentrations of GUMBOS against N. gonorrhoeae: Clinical isolates of N. gonorrhoeae and N. gonorrhoeae ATCC 49226 were obtained from Louisiana State University Health Sciences Center New Orleans HIV Outpatient Clinic. Minimum inhibitory concentrations (MICs) of GUMBOS, constituent parent drugs, azithromycin, and unreacted mixtures were determined using micro-broth dilution in 96-well plates. […] Stock solutions were diluted to a known working concentration and 100 μL were added to the first row of the plate. For susceptibility testing of N. gonorrhoeae, media was prepared according to methods reported by Wade and […]. Euro. Microbiol. Soc. Microbiol. […] This liquid medium allowed dense growth of N. gonorrhoeae for use in broth dilution tests. Protein-free liquid media (100 μL) were added to each well and two-fold dilutions were performed. The antibiotic containing wells were inoculated with an equal volume of bacterial inoculum matching a 0.5 McFarland standard. […] The lowest concentration of antibiotic that prevents growth is the MIC.

[4] = MTT cytotoxicity assay of ceftriaxone-based GUMBOS; assay type: cell-based; conditions: human, HeLa cells, read-out: Acute cytotoxicity (IC50)
Description: Cytotoxicity Assay of GUMBOS: Cytotoxicity of GUMBOS, unreacted mixtures, and antiseptics towards healthy cells were evaluated using the MTT assay, a colorimetric dye assay, according to manufacturer's instructions. […] Stock solutions of antimicrobial agents in cell medium (1% MeOH) were diluted to a known working concentration, doubly diluted, and transferred to seeded cells. […] Cells treated with only DMEM were used as a negative control. After incubation, 15 μL of MTT were added to each well and cells were further incubated for an hour. Sodium dodecyl sulfate dimethylformamide solution was added after this additional incubation time in order to dissolve the purple formazan crystals. Cell viability was quantified at 570 nm using a microplate spectrophotometer (Eppendorf PlateReader AF2200, Hauppauge, NY). Cell viability as a percentage was determined as the ratio between treated cells and untreated (control) cells taken as 100%.

HeLa cells = assay: MTT cytotoxicity assay of octenidine/carbenicillin GUMBOS; assay type: cell-based; conditions: HeLa; for Relative toxicity to cervical cells (in words): after 15 min of incubation
Description: (§4) Cytotoxicity assay: To determine cell viability, a colorimetric MTT dye assay (Promega Corp., Madison, WI, USA) was used, employing the manufacturer's instructions, as an indicator of cytotoxicity of GUMBOS towards healthy (HeLa) cells. Hela cells (ATCC CCL-2) grown in DMEM-reduced serum supplemented with 10% FBS were plated at a density of 1% 10^5 cells/mL (10^4 cells/well) in 96-well plates. Concentrations of therapeutic agents up to 500 μM (1% MeOH or DMSO) were doubly diluted in cell culture media and transferred to seeded cells. Cells were incubated for 15 min and 60 min at 37° C. in a 5% CO2 atmosphere. Cells treated with medium alone served as a negative control. At the end of the incubation period, 15 μL of MTT was added to each well and incubation continued for another hour. Absorbance was measured at 570 nm in a microplate spectrophotometer. All experiments were performed in quadruplicate. Cell viability as a percentage was determined as the ratio between treated cells and untreated (control) cells (taken as 100%).

[5] = as above; assay type: cell-based; conditions: human
Description: as §4

[6] = tested on: clinical isolates of N. gonorrhoeae; assay: MIC by micro-broth dilution against N. gonorrhoeae clinical isolates; assay type: cell-based, Neisseria gonorrhoeae; conditions: Neisseria gonorrhoeae
Description: as §3

[7] = tested on: N. gonorrhoeae clinical isolates; assay: Kirby-Bauer disc diffusion against N. gonorrhoeae clinical isolates; assay type: cell-based, Neisseria gonorrhoeae; conditions: three clinical isolates, 20-24 h
Description: as §1, §2

[8] = Parallel Artificial Membrane Permeability Assay (PAMPA); assay type: in vitro ADME
Description: Predictive intestinal permeability: PAMPA was employed as an in vitro model of passive, transcellular permeation. In this technique, a 96-well microtiter plate is used as a donor plate and a membrane/acceptor compartment coated with structured tri-layers of phospholipids is placed on top; this configuration is referred to as ‘sandwiched’. Known concentrations of octenidine/carbenicillin (100 μM in 1×PBS, 0.25% DMSO) were added to the donor plate while only buffer was placed in the acceptor plate. The assay was incubated for 5 h at room temperature and the acceptor plate was measured using a UV/Vis spectroscopy plate reader (Eppendorf PlateReader AF2200). Permeability coefficients (Pe) were calculated based on initial concentration in donor well (C0), concentration in donor well at 5 h (CD), concentration in acceptor well at 5 h (CA), volumes of donor (VD) and acceptor wells (VA), well filter area (A, 0.3 cm^2) and incubation time (t, 18000 s), as calculated using the relationship in Equation 1.

Row | Structure (SMILES) | Log P [1] | Zone size, mm (±SD) [2] | MIC [3] | IC50 at 15 min ([4]; 15 min) | IC50 at 60 min ([4]; 60 min) | Relative toxicity to cervical cells (in words) (HeLa cells) | IC50 at 15 min [5] | IC50 at 60 min [5] | MIC [6] | Zone size, mm (±SD) [7] | Combination effect on antibacterial activity ([2]; N. gonorrhoeae (ATCC 49226) and clinical isolates, disc diffusion) | Antibacterial activity relative to azithromycin ([2]; disc diffusion ZOIs) | Permeability class [8] | Mean effective Pe (permeability coefficient) ([8]; 100 μM in 1×PBS, 0.25% DMSO, 5 h, room temperature) | Cytotoxicity towards cervical cells (in words) (HeLa cells)
1 | [H]/N=C(\N/C(=N/[H])NCCCCCCNC(=N)NC(=N)Nc1ccc(Cl)cc1)Nc1ccc(Cl)cc1 [chlorhexidine] | 0.08 | – | – | – | – | – | – | – | – | – | – | – | – | – | –
2 | CCCCCCCCN=c1ccn(CCCCCCCCCCn2ccc(=NCCCCCCCC)cc2)cc1 [Octenidine dihydrochloride, octenidine dihydrochloride] | – | 9 ± 1 mm | 3.1 µM | 55 ± 1.29 µM | 25.9 ± 1.17 µM | most toxic | 37.4 ± 2.8 µg/mL | 16.1 ± 0.7 µg/mL | 4.7 ± 1.8 µM | 9 ± 0.3 mm | – | – | – | – | –
3 | CC1(C)S[C@@H]2[C@H](NC(=O)C(C(=O)[O-])c3ccccc3)C(=O)N2[C@H]1C(=O)[O-].CCCCCCCCNc1cc[n+](CCCCCCCCCC[n+]2ccc(NCCCCCCCC)cc2)cc1 [[OCT][CAR], octenidine/carbenicillin] | – | 40 ± 0.6 mm | – | – | – | lower toxicity than the stoichiometric, unreacted mixture | – | – | – | 37 ± 4 mm | additive effect | bioequivalent to azithromycin | high permeability (Pe values that are greater than 1.5% 10 cm/s are defined as high permeability) | 3.78×10^−6 (±0.85) cm/s | non-toxic towards cervical cells
